What is called inhibition is the relative decrease from the control value, in per cent.

Where two headings read alike, the source gives them in different places.

For one test, the system named is Aβ total. In words: Aβ total levels in H4 neuroglioma cells stably expressing human APP695 (MSD electrochemiluminescence). The format is cell-based. To be noted: selectivity ratio vs. Aβtotal, Table 4a. Here is the method:
Cells were plated out to near confluency. The compounds to be tested were received as 10 mM stocks in 100% DMSO. A dilution series was initially generated in 100% DMSO and then diluted 200-fold in cell culture media such that the tested concentration range was 30 μM to 0.1 nM and the final DMSO concentration was 0.5%. The diluted compounds were incubated with the cells for 22 hours in an incubator at 37° C. and 5% CO2. Aβ42 levels were measured post-incubation from the supernatant of the cells using an Aβ42 specific electrochemiluminescence assay provided by Meso Scale Discovery (Catalog #L21CA-1). The measurement of Aβ42 levels were performed according to the manufacturer's protocol.
Aβ total levels were likewise determined using a specific electrochemiluminescence assay provided by Meso Scale Discovery (Catalog #L21ZA-1) according to the manufacturer's protocol.

The next test deals with T1, MAP4K2 (GCK) (Homo sapiens, UniProt Q12851).
T1 sequence (Q12851 1-820): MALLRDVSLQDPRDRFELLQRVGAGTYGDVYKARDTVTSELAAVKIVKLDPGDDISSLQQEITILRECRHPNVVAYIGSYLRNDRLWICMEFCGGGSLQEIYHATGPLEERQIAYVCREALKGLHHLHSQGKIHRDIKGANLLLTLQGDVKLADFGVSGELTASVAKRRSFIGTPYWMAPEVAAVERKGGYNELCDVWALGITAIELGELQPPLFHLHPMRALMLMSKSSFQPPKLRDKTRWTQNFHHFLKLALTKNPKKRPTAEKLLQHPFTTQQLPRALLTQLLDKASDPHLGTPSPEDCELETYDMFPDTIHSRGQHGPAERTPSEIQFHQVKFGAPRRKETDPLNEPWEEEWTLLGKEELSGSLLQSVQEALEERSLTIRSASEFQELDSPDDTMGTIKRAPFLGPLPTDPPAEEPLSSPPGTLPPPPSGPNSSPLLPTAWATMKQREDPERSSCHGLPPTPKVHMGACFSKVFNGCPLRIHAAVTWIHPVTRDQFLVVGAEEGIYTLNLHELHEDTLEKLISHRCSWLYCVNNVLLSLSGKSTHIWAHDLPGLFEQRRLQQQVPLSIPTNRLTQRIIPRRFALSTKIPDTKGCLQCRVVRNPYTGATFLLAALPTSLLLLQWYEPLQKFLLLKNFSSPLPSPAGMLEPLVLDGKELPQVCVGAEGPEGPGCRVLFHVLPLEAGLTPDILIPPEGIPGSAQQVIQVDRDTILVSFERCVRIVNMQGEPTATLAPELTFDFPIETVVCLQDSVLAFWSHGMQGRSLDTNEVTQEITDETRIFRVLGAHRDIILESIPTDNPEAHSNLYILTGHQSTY
The experiment in a line: Z'-LYTE SelectScreen biochemical kinase assay MAP4K2 (GCK). The text has this: Thermo Fisher Scientific SelectScreen™ Biochemical Kinase Profiling Service Z′-LYTE™ Screening Protocol and Assay Conditions Assay Theory
The […] biochemical assay employs a fluorescence-based, coupled-enzyme format and is based on the differential sensitivity of phosphorylated and non-phosphorylated peptides to proteolytic cleavage. The peptide substrate is labeled with two fluorophores—one at each end—that make up a FRET pair. In the primary reaction, the kinase transfers the gamma-phosphate of ATP to a single tyrosine, serine or threonine residue in a synthetic FRET-peptide. In the secondary reaction, a site-specific protease recognizes and cleaves non-phosphorylated FRET-peptides. Phosphorylation of FRET-peptides suppresses cleavage by the Development Reagent. Cleavage disrupts FRET between the donor (i.e., coumarin) and acceptor (i.e., fluorescein) fluorophores on the FRET-peptide, whereas uncleaved, phosphorylated FRET-peptides maintain FRET. A ratiometric method, which calculates the ratio (Emission Ratio=Coumarin emission (445 nm)/Fluorescein emission (520 nm)) of donor emission to acceptor emission after excitation of the donor fluorophore at 400 nm, is used to quantitate reaction progress, as shown in the equation below. A significant benefit of this ratiometric method for quantitating reaction progress is the elimination of well-to-well variations in FRET-peptide concentration and signal intensities. As a result, the assay yields very high Z′-factor values (>0.7) at a low percent phosphorylation. Both cleaved and uncleaved FRET-peptides contribute to the fluorescence signals and therefore to the Emission Ratio. The extent of phosphorylation of the FRET-peptide can be calculated from the Emission Ratio. The Emission Ratio will remain low if the FRET-peptide is phosphorylated (i.e., no kinase inhibition) and will be high if the FRET-peptide is non-phosphorylated (i.e., kinase inhibition).
The Test Compounds are screened in 1% DMSO (final) in the well. For 10 point titrations, 3-fold serial dilutions are conducted from the starting concentration of the customer's choosing.
All Peptide/Kinase Mixtures are diluted to a 2× working concentration in the appropriate Kinase Buffer (see section Kinase Specific Assay Conditions for a complete description).
All ATP Solutions are diluted to a 4× working concentration in Kinase Buffer (50 mM HEPES pH 7.5, 0.01% BRIJ-35, 10 mM MgCl2, 1 mM EGTA). ATP Km apparent is previously determined using a Z″-LYTE assay.
The Development Reagent is diluted in Development Buffer (see section Kinase-Specific Assay Conditions—Direct and Cascade for a complete description).
Bar-coded Corning, low volume NBS, black 384-well plate (Corning Cat. #4514) • 1. 100 nL—100× Test Compound in 100% DMSO • 2. 2.4 μL—Kinase buffer • 3. 5 μL—2× Peptide/Kinase Mixture • 4. 2.5 μL—4×ATP Solution • 5. 30—second plate shake • 6. 60—minute Kinase Reaction incubation at room temperature • 7. 5 μL—Development Reagent Solution • 8. 30—second plate shake • 9. 60—minute Development Reaction incubation at room temperature • 10. Read on fluorescence plate reader and analyze the data Z′-LYTE Assay Controls
SelectScreen Kinase Profiling Service uses XLfit from IDBS. The dose response curve is curve fit to model number 205 (sigmoidal dose-response model).
The 2×MAP4K2 (GCK)/Ser/Thr 07 mixture is prepared in 50 mM HEPES pH 7.5, 0.01% BRIJ-35, 10 mM MgCl2, 1 mM EGTA. The final 10 μL Kinase Reaction consists of 0.11-3 ng MAP4K2 (GCK) and 2 μM Ser/Thr 07 in 50 mM HEPES pH 7.5, 0.01% BRIJ-35, 10 mM MgCl2, 1 mM EGTA. After the 1 hour Kinase Reaction incubation, 5 μL of a 1:45000 dilution of Development Reagent A is added.

The mark [1] stands for this setting: 10 μmolar compound concentration, ATP at Km app, read-out: MAP4K2 (GCK) inhibition.
Setting [2] is: read-out: % Inhibition mean MAP4K2 (GCK).

As to `CCn1ncc2c1CCC(Nc1nc3c(-c4cnccc4OC)cccn3n1)C2` (stereo not drawn) [Example 68, (1-Ethyl-4,5,6,7-tetrahydro-1H-indazol-5-yl)-[8-(4-methoxy-pyridin-3-yl)-[1,2,4]triazolo[1,5-a]pyridine-2-yl]-amine], the “Ratio AβTotal IC50/Aβ42 IC50” value with Aβ total came out at 241. The results for the inhibition at 10 µM on MAP4K2 (GCK) (setting [1]) and at MAP4K2 (GCK) (setting [2]) were less than 40% and 28%, respectively.
The like results for `CCCCn1ncc2c1CCC(Nc1nc3c(-c4ccc(F)cc4C)cccn3n1)C2` (stereo not drawn) [Example 46, [8-(4-fluoro-2-methyl-phenyl)-[1,2,4]triazolo[1,5-a]pyridine-2-yl]-(1-butyl-4,5,6,7-tetrahydro-1H-indazol-5-yl)-amine] were, in that order, 4, less than 40% and 19%.
The like results for `CCn1ncc2c1CCC(Nc1nc3c(-c4cncc(Cl)c4)cccn3n1)C2` (stereo not drawn) [Example 73, [8-(5-Chloro-pyridin-3-yl)-[1,2,4]triazolo[1,5-a]pyridine-2-yl]-(1-ethyl-4,5,6,7-tetrahydro-1H-indazol-5-yl)-amine] were, in that order, 420, 40 to 80% and 49%.
In the case of `CCn1ncc2c1CCC(Nc1nc3c(-c4ccc(C)nc4)cccn3n1)C2` (stereo not drawn) [Example 67, (1-Ethyl-4,5,6,7-tetrahydro-1H-indazol-5-yl)-[8-(6-methyl-pyridin-3-yl)-[1,2,4]triazolo[1,5-a]pyridine-2-yl]-amine], the “Ratio AβTotal IC50/Aβ42 IC50” value with Aβ total is listed as 45. For the same compound, the inhibition at 10 µM is less than 40% on MAP4K2 (GCK) (setting [1]) and 14% on MAP4K2 (GCK) (setting [2]).
With `CCn1ncc2c1CC[C@H](Nc1nc3c(-c4ccc(F)c(Cl)c4)cccn3n1)C2` [Example S-61, (S)-[8-(3-Chloro-4-fluoro-phenyl)-[1,2,4]triazolo[1,5-a]pyridine-2-yl]-(1-ethyl-4,5,6,7-tetrahydro-1H-indazol-5-yl)-amine], in the test with Aβ total, the “Ratio AβTotal IC50/Aβ42 IC50” value turned out to be 42. The values for the inhibition at 10 µM at MAP4K2 (GCK) (setting [1]) and at MAP4K2 (GCK) (setting [2]) were less than 40% and 12%, respectively.
The matching figures for `CCc1nn(C)c2c1CCC(Nc1nc3c(-c4ccc(F)cc4C)cccn3n1)C2` (stereo not drawn) [Example 54, (3-Ethyl-1-methyl-4,5,6,7-tetrahydro-1H-indazol-6-yl)-[8-(4-fluoro-2-methyl-phenyl)-[1,2,4]triazolo[1,5-a]pyridine-2-yl]-amine]: 10, less than 40% and 27%.
`Cc1cc(F)ccc1-c1cccn2nc(NC3CCc4cnn(C)c4C3)nc12` (stereo not drawn) [Example 40, [8-(4-Fluoro-2-methyl-phenyl)-[1,2,4]triazolo[1,5-a]pyridine-2-yl]-(1-methyl-4,5,6,7-tetrahydro-1H-indazol-6-yl)-amine]: the “Ratio AβTotal IC50/Aβ42 IC50” value in the test with Aβ total came to 1. Also, the inhibition at 10 µM is less than 40% on MAP4K2 (GCK) (setting [1]) and 13% on MAP4K2 (GCK) (setting [2]).
As to `CCn1nc(Cl)c2c1CCC(Nc1nc3c(-c4ccc(F)cc4C)cccn3n1)C2` (stereo not drawn) [Example 48, (3-Chloro-1-ethyl-4,5,6,7-tetrahydro-1H-indazol-5-yl)-[8-(4-fluoro-2-methyl-phenyl)-[1,2,4]triazolo[1,5-a]pyridine-2-yl]-amine], the “Ratio AβTotal IC50/Aβ42 IC50” value with Aβ total worked out at 22. The inhibition at 10 µM on MAP4K2 (GCK) (setting [1]) was less than 40%; at MAP4K2 (GCK) (setting [2]), 16%.
In the case of `CCn1ncc2c1C(C)CC(Nc1nc3c(-c4cc(F)c(F)c(F)c4)cccn3n1)C2` (stereo not drawn) [Example 49, (1-Ethyl-7-methyl-4,5,6,7-tetrahydro-1H-indazol-5-yl)-[8-(3,4,5-trifluoro-phenyl)-[1,2,4]triazolo[1,5-a]pyridine-2-yl]-amine], the “Ratio AβTotal IC50/Aβ42 IC50” value in the test on Aβ total is recorded as 15. The inhibition at 10 µM on MAP4K2 (GCK) (setting [1]) is less than 40%; at MAP4K2 (GCK) (setting [2]), 17%.
For the compound `Cc1cc(F)ccc1-c1cccn2nc(Nc3ccc4c(cnn4C)c3)nc12` [Example 9, [8-(4-fluoro-2-methyl-phenyl)-[1,2,4]triazolo[1,5-a]pyridine-2-yl]-(1-methyl-1H-indazol-5-yl)-amine], in the test with Aβ total, the “Ratio AβTotal IC50/Aβ42 IC50” value came to 3. Further, the inhibition at 10 µM on MAP4K2 (GCK) (setting [1]) is 40 to 80%; at MAP4K2 (GCK) (setting [2]), 43%.
The like results for `Cc1cc(F)ccc1-c1cccn2nc(NC3CCc4c(cnn4CC(C)C)C3)nc12` (stereo not drawn) [Example 45, [8-(4-fluoro-2-methyl-phenyl)-[1,2,4]triazolo[1,5-a]pyridine-2-yl]-(1-isobutyl-4,5,6,7-tetrahydro-1H-indazol-5-yl)-amine] were, in that order, 4, less than 40% and 24%.
For the compound `CCCn1ncc2c1CCC(Nc1nc3c(-c4ccc(F)cc4C)cccn3n1)C2` (stereo not drawn) [Example 43, [8-(4-fluoro-2-methyl-phenyl)-[1,2,4]triazolo[1,5-a]pyridine-2-yl]-(1-propyl-4,5,6,7-tetrahydro-1H-indazol-5-yl)-amine], the “Ratio AβTotal IC50/Aβ42 IC50” value in the test with Aβ total was found to be 48. Also, the inhibition at 10 µM was less than 40% on MAP4K2 (GCK) (setting [1]) and 9% at MAP4K2 (GCK) (setting [2]).
The like results for `CCn1ncc2c1CCC(Nc1nc3c(-c4cccnc4OC)cccn3n1)C2` (stereo not drawn) [Example 69, (1-Ethyl-4,5,6,7-tetrahydro-1H-indazol-5-yl)-[8-(2-methoxy-pyridin-3-yl)-[1,2,4]triazolo[1,5-a]pyridine-2-yl]-amine] were, in that order, 60, less than 40% and 9%.
The like results for `Cc1cc(F)ccc1-c1cccn2nc(NC3CCc4c(cnn4C)C3)nc12` (stereo not drawn) [Example 10, [8-(4-fluoro-2-methyl-phenyl)-[1,2,4]triazolo[1,5-a]pyridine-2-yl]-(1-methyl-4,5,6,7-tetrahydro-1H-indazol-5-yl)-amine] were, in that order, 27, less than 40% and 8%.

The values are drawn from patent US11339161B2, “Triazolo pyridines as modulators of gamma-secretase” (Boehringer Ingelheim International GmbH, priority 2017, dated 2022).
